Columns and labels:
[1] = system: HSP90; assay: Treating a human subject with Tempol, serum level of HSP90 following treatment; type: in vivo; settings: 2000 mg per day for 180 days
Description: (§1) A 70-kilogram human subject over the age of 65 is identified as having, or known to have, or suspected of having an increased expression level of HSP90. The human subject is administered a dose of 2000 mg of Tempol (or another nitroxide antioxidant) per day for 180 days. This may be administered in a single dose, or may be administered as a number of smaller doses over a 24-hour period: for example, four 500-mg doses at […]. Following treatment, the serum level of HSP90, is decreased.
A 70-kilogram human subject is identified as having, or known to have, or suspected of having an increased expression level of HSP90. The human subject is administered a dose of 2000 mg of Tempol (or another nitroxide antioxidant) per day for 180 days. This may be administered in a single dose, or may be administered as a number of smaller doses over a 24-hour period: for example, four 500-mg doses at […]. Following treatment, the serum level of HSP90, is decreased.
as §1, with “65 and having a cardiovascular disease” for “65”, “for an increased expression level of HSP90. Or a 70-kilogram human subject over the age of 65 is” for “as having, or”, “have a cardiovascular disease and/or” for “have, or suspected of having an”
A 70-kilogram human subject at risk of developing colorectal cancer is identified for increased expression level of HSP90. Or a 70-kilogram human subject is known to be at risk of developing colorectal cancer and/or have increased expression level of HSP90. The human subject is administered a dose of 2000 mg of Tempol (or another nitroxide antioxidant) per day for 180 days. This may be administered in a single dose, or may be administered as a number of smaller doses over a 24-hour period: for example, four 500-mg doses at […]. Following treatment, the serum level of HSP90, is decreased. […]
A 70-kilogram human subject having an infection (e.g., a bacterial, fungal, or viral infection) is identified for increased expression level of HSP90. Or a 70-kilogram human subject is known to have an infection and/or have increased expression level of HSP90. The human subject is administered a dose of 2000 mg of Tempol (or another nitroxide antioxidant) per day for 180 days. This may be administered in a single dose, or may be administered as a number of smaller doses over a 24-hour period: for example, four 500-mg doses at […]. Following treatment, the serum level of HSP90, is decreased.

[2] = system: HSP90; assay: Effects of Tempol on gene expression in cardiac tissue of mice, chip-based microarray; type: in vivo
Description: To assess the effects of Tempol on gene expression, Tempol was administered to experimental mice at a dose of 5 mg/g of food from 14 months to 31 months after birth. Mice receiving the same food without the addition of Tempol were used as a negative control. At the age of 31 months, the experimental animals were sacrificed and the hearts were surgically removed. The expression of a broad spectrum of genes in the cardiac tissue was assessed using chip-based microarray technology. Such chips are well known in the art and are widely used to assess gene expression.

Compound: CC1(C)CC(O)CC(C)(C)N1[O] [Tempol, 4-hydroxy-2,2,6,6-tetramethylpiperidine-1-oxyl]
- serum level of HSP90 following treatment ([1]; Example 2: 70-kilogram human subject over the age of 65 with increased expression level of HSP90): decreased
- serum level of HSP90 following treatment ([1]; Example 3: 70-kilogram human subject with increased expression level of HSP90): decreased
- serum level of HSP90 following treatment ([1]; Example 4: 70-kilogram human subject over the age of 65 having a cardiovascular disease): decreased
- serum level of HSP90 following treatment ([1]; Example 5: 70-kilogram human subject at risk of developing colorectal cancer): decreased
- serum level of HSP90 following treatment ([1]; Example 6: 70-kilogram human subject at risk of developing an autoimmune disease (e.g., rheumatoid arthritis)): decreased
- serum level of HSP90 following treatment ([1]; Example 7: 70-kilogram human subject at risk of developing a condition due to aging): decreased
- serum level of HSP90 following treatment ([1]; Example 8: 70-kilogram human subject at risk of developing a neurodegenerative disease (e.g., Parkinson's Disease)): decreased
- serum level of HSP90 following treatment ([1]; Example 9: 70-kilogram human subject having an infection (bacterial, fungal, or viral)): decreased
- Fold change (expression of HSP90 in cardiac tissue after Tempol administration) ([2]; Tempol 5 mg/g of food from 14 months to 31 months after birth, vs same food without Tempol, cardiac tissue at 31 months): −2.4
- HSP90 expression in cardiac tissue ([2]; Tempol 5 mg/g of food from 14 to 31 months after birth, cardiac tissue, result in words): statistically significant decrease in expression

— patent publication US11324737B1, “Modulating expression level of a gene encoding a heat shock protein by treating a human subject with a nitroxide” (priority 2021, dated 2022)
